Results: patent US11273148B2, “Targeted epigenetic therapy for inherited aortic aneurysm condition” (The Johns Hopkins University, priority 2017, dated 2022)
Entries after “also recorded” stand apart in the source; their conditions may differ.

What was measured:
SGS patient fibroblasts = test: qPCR of TGFβ target genes in TGFβ1-stimulated primary human dermal fibroblasts; assay type: cell-based; conditions: for Expression level of COL3A1 and FN1 relative to β-actin / Expression level of SKI and SMAD7 relative to β-actin: control and SGS patient fibroblasts, vs vehicle treated
Procedure: Primary human dermal fibroblasts were derived from forearm skin biopsies of two controls and two patients with Shprintzen-Goldberg syndrome from previously described. The fibroblasts were cultured in Dulbecco's modified eagle medium (DMEM) with 10% fetal bovine serum (FBS) in the presence of antibiotics and passaged confluence. According to previously described protocols with slight modifications (2), all cell culture experiments were conducted in serum-starved media for 24 hours prior to drug treatment. Stimulation was performed using 10 ng/ml recombinant human TGFβ1 (R&D system). […] Cells were collected at baseline, 6 hours after TGFβ1 stimulation. RNA was extracted from the cells using Trizol (ThermoFisher) by RNeasy mini kit (QIAGEN), as per the manufacturer's manual.
Total RNA was isolated from mouse aortas or cultured cells by RNeasy mini kit (QIAGEN), as per the manufacturer's manual. Quantitative PCR was performed in triplicate with TaqMan Universal PCR Master Mix using an ABI Prism 7900 HT QPCR machine (all from Applied Biosystems), as per the manufacturer's manual. The following prevalidated TaqMan probes were used to detect specific transcripts: Mm00801666_g1 (Collal), Mm01254476_m1 (Col3A1), Mm01256744_m1 (Fn1), Mm04205640_g1 (Cdkn1a), Mm01192932_g1 (Ctgf), and Mm00435860_m1 (Serpine1), Mm00448744_m1 (Ski), Mm00456917_m1 (Skil), Mm00484742_m1 (Smad7) and Mm00607939_s1 (Actb) (Life Technologies). For human samples, the following probes were used: Hs00943809_m1 (COL3A1), Hs00365052_m1 (FN1), Hs00161707_m1 (SKI), Hs01045418_m1 (SKIL) and Hs01060665_g1 (ACTB). Reactions were run in triplicate, and relative quantification for each transcript was obtained by normalizing against housekeeping control transcript such as β-ACTIN (ACTB) according to the formula 2^−Ct/2^−Ct(ACTB).

TGFβ target genes = test: qPCR of TGFβ target genes in mouse aorta; assay type: in vivo; conditions: C646 treated vs DMSO treated VSMC/Ski G34D/+ mice
From the text: For quantitative RT-PCR and chromatin immunoprecipitation, mice aortic root and ascending aorta (above aortic root to the origin of right brachiocephalic trunk) harvested separately, snap-frozen in liquid nitrogen and stored at minus 80 degrees Celsius until processed. For RNA extraction, Aortas were homogenized in Trizol (ThermoFisher) by FastPrep-24 (MP Biomedicals, LLC.), as per the manufacturer's manual. After homogenization, RNA was extracted by RNeasy mini kit (QIAGEN), as per the manufacturer's manual. RNA samples were then stored once more at minus 80 degrees until quantitative RT-PCR experiment was performed.
C646 (Selleckchem, #S7152) was reconstituted in 10% DMSO (Sigma) dissolved in PBS, and administered daily by intraperitoneal (IP) injection at dose of 5 mg/kg/day. Treatment was initiated at 8 weeks of age and continued for 12 weeks. […]
Total RNA was isolated from mouse aortas or cultured cells by RNeasy mini kit (QIAGEN), as per the manufacturer's manual. Quantitative PCR was performed in triplicate with TaqMan Universal PCR Master Mix using an ABI Prism 7900 HT QPCR machine (all from Applied Biosystems), as per the manufacturer's manual. […] Reactions were run in triplicate, and relative quantification for each transcript was obtained by normalizing against housekeeping control transcript such as β-ACTIN (ACTB) according to the formula 2^−Ct/2^−Ct(ACTB).

VSMC/Ski G34D/+ mice [1] = test: Aortic root diameter and growth by echocardiography in C646-treated mice; assay type: in vivo, mouse; conditions: for Final absolute aortic root diameter: C646 5 mg/kg/day IP from 8 weeks of age; for Final absolute aortic root diameter / Final absolute aortic root growth rate: 12 weeks of treatment, +/−SEM; for Final absolute aortic root growth rate: C646 5 mg/kg/day IP
Procedure: (§1) C646 (Selleckchem, #S7152) was reconstituted in 10% DMSO (Sigma) dissolved in PBS, and administered daily by intraperitoneal (IP) injection at dose of 5 mg/kg/day. Treatment was initiated at 8 weeks of age and continued for 12 weeks. 10% DMSO in PBS was administered as a control.
Nair hair removal cream was used to remove fur from the anterior thorax of the mice the day prior to echocardiography. According to previously described with slight modifications (1), all echocardiography were performed on mice that were awake and unsedated with the use of the Vevo 2100 imaging system and 40 MHz transducer (Visualsonics). Mice were imaged at 8 weeks of age as a baseline and every 4 weeks thereafter, until 20 weeks of age. Mice aorta were imaged in the parasternal long-axis view. Three separate measurements of the maximal internal dimension at the sinus of Valsalva during systole were made in separate cardiac cycles and averaged. All imaging and analysis was performed blinded to genotype and treatment arm.

[2] = system: histone 3 lysine 27 acetylation (H3K27ac); test: Immunofluorescent detection of H3K27ac in aortic roots; assay type: in vivo, mouse; conditions: VSMC/Ski G34D/+ mice, C646 5mg/kg/day vs DMSO-treated
Procedure: For aorta frozen section, harvested aorta with heart was fixed in fresh 4% paraformaldehyde in PBS at 4 degree overnight and then placed in cold 30% sucrose in PBS solution and incubated at 4 degree overnight again. Tissue was then embedded in Tissue-Tek O.C.T compound ad snap-frozen in liquid nitrogen and stored at minus 80 degree until processed.
as §1
Immunofluorescence staining was performed as previous described (3). Frozen 10 μm long-axis view sections were obtained with a cryostat and mounted on glass slides. Sections were dried for at room temperature for overnight prior to staining. Sections were permeabilized in staining buffer (PBS containing 0.1% Triton-X 100) for 30 minutes and then incubated with Fc Receptor Block from Innovex for 30 minutes at room temperature, washed briefly in staining buffer, and then incubated again in blocking solution (0.1% Triton-X 100, 1:50 goat serum, 0.3M glycine) for 30 minutes. […]

VSMC/Ski G34D/+ mice [3] = test: Aortic root histology (VVG and Masson-trichrome staining): wall thickness, elastin fiber disruptions; assay type: in vivo, mouse; conditions: for Final absolute aortic wall thickness / Final number of disruptions in elastin fiber architecture: C646 5 mg/kg/day IP, 12 weeks, aortic root sections, +/−SEM
Procedure: According to a previously described protocol with slight modification (1), mice that were analyzed for aortic histology had latex infused into the left ventricle through descending abdominal aorta. Mice were then fixed for 24 hours in 10% neutral buffered formalin and then switched into 70% ethanol until histological analysis was performed.
as §1
According to previously described protocols with slight modifications (1), latex-infused heart and aorta were removed from body and transected just below the level of the aortic annulus, and just above aortic root, and 2-3 mm transverse sections were mounted in 4% agar prior to paraffin fixation. Five micron aortic sections underwent Verhoeff-van Giesen (VVG) and Masson's Trichrome staining, and were imaged 40× magnification, using a Nikon Eclipse E400 microscope. Aortic wall thickness was measured of four sites of four representative sections for each mouse and the disruptions of elastin fiber architecture were counted in four sections every 25 micron from aortic annulus. All analyses were performed blinded to genotype and treatment arm and the results were averaged.

[4] = C646 2004 for 24 hours pre-treated before TGFβ1 stimulation
[5] = C646 2004 for 24 hours pre-treated before TGFβ1 stimulation (10 ng/ml for 6 hours)
[6] = SD208 10 μM for 1 hour pre-treated before TGFβ1 stimulation (10 ng/ml for 6 hours)

Compound | Difference of COL3A1 and FN1 expression level between C646 treated SGS patient fibroblast and vehicle treated control fibroblasts (SGS patient fibroblasts; [4]) | Difference of SKI expression level between C646 treated SGS patient fibroblast and vehicle treated control fibroblast (SGS patient fibroblasts; [4]) | TGFβ target gene expression in SGS patient fibroblasts (SGS patient fibroblasts; comparable efficiency of a TGFβ type I receptor (Alk5) kinase inhibitor) | Expression level of COL3A1 and FN1 relative to β-actin (SGS patient fibroblasts; [5]) | Expression level of SKI and SMAD7 relative to β-actin (SGS patient fibroblasts; [5]) | Expression levels of TGFβ target genes relative to β-actin in aorta (TGFβ target genes) | Aortic root diameter (in words) (VSMC/Ski G34D/+ mice [1]; C646 treated vs DMSO treated VSMC/Ski G34D/+ mice, echocardiogram) | Final absolute aortic root diameter (VSMC/Ski G34D/+ mice [1]; Control mice, echocardiogram) | Final absolute aortic root growth rate (VSMC/Ski G34D/+ mice [1]; Control mice) | Final absolute aortic root diameter (VSMC/Ski G34D/+ mice [1]; VSMC/Ski G34D/+ mice, echocardiogram) | Final absolute aortic root growth rate (VSMC/Ski G34D/+ mice [1]; VSMC/Ski G34D/+ mice) | Aneurysm progression (VSMC/Ski G34D/+ mice [1]; systemically-administered C646 in Ski VSMC:G34D/+ mice) | H3K27 acetylation in aortic root [2] | Aortic wall architecture: medial thickening, elastic fiber fragmentation, collagen deposition (in words) (VSMC/Ski G34D/+ mice [3]; C646 treated vs DMSO treated VSMC/Ski G34D/+ mice, VVG and Masson-trichrome staining) | Final absolute aortic wall thickness (VSMC/Ski G34D/+ mice [3]; Control mice) | Final number of disruptions in elastin fiber architecture (VSMC/Ski G34D/+ mice [3]; Control mice) | Final absolute aortic wall thickness (VSMC/Ski G34D/+ mice [3]; VSMC/Ski G34D/+ mice) | Final number of disruptions in elastin fiber architecture (VSMC/Ski G34D/+ mice [3]; VSMC/Ski G34D/+ mice) | Expression level of COL3A1 and FN1 relative to β-actin (SGS patient fibroblasts; [6]) | Expression level of SKI and SMAD7 relative to β-actin (SGS patient fibroblasts; [6])
CC1=NN(c2ccc(C(=O)O)cc2)C(=O)C1=Cc1ccc(-c2cc(C)c(C)cc2[N+](=O)[O-])o1 (stereo in doubt) [C646, 4-[(4Z)-4-[[5-(4,5-dimethyl-2-nitrophenyl)furan-2-yl]methylidene]-3-methyl-5-oxopyrazol-1-yl]benzoic acid] | no significant difference | no significant difference | normalized TGFβ target gene expression | significantly decreased expression level | significantly decreased expression level | decreased expression levels of TGFβ target genes except COL1A1, SKI and SKIL; also recorded: normalizes gene expression in the aorta; also recorded: normalization of the TSR | normalized aortic root diameter; also recorded: rescued aortic root diameter | 1.686+/−0.024 mm | 0.067+/−0.023 mm/12 weeks | 1.848+/−0.045 mm | 0.119+/−0.042 mm/12 weeks | abrogates aneurysm progression; also recorded: prevented aneurysm progression | decreased H3K27 acetylation; also recorded: prevention of excessive Histone 3 Lysine 27 (H3K27) acetylation | reduced medial thickening and elastic fiber fragmentation and the recovered collagen deposition; also recorded: preserves aortic wall architecture; also recorded: preservation of aortic wall architecture | 58.547+/−1.415 μm | 1+/−0.577 | 63.438+/−1.818 μm | 6+/−1.155 | – | –
Fc1ccc(Cl)cc1-c1nc(Nc2ccncc2)c2nccnc2n1 [SD208] | – | – | – | – | – | – | – | – | – | – | – | – | – | – | – | – | – | – | significantly decreased expression level | significantly decreased expression level
